One may read the MIC as the least concentration at which growth counts as inhibited. A high value points to a need for much substance. In general, IC50 refers to the concentration needed to halve the response being measured.

Results on 4 compounds are retold here after ChEMBL document CHEMBL3352203, “Bioactive sulfur-containing sulochrin dimers and other metabolites from an Alternaria sp. isolate from a Hawaiian soil sample” (J Nat Prod, 2014).

Converted amounts (≈) assume the structure as drawn.

For experiment [1], the system named is Staphylococcus aureus. As to the kind of experiment: Antibacterial activity against Staphylococcus aureus ATCC 700787 after 17 hrs. Type of experiment: functional. Particulars: ATCC 700787, 17 h.
Experiment [2] can be described thus: Cytotoxicity against human MIAPaCa2 cells assessed as after 48 hrs by MTT assay. Type of experiment: functional, cell-based. Conditions: MIA PaCa-2, 48 h. On the technique in general: Formazan colour is commonly taken as a measure of viable cells.

For `COC(=O)c1c(Sc2c(O)cc(OC)c(C(=O)c3c(O)cc(C)cc3O)c2C(=O)OC)c(O)cc(OC)c1C(=O)c1c(O)cc(C)cc1O`, the minimal inhibitory concentration (MIC) in experiment [1] came to 4.1 µM (≈ 2.85 µg/mL). Also, the IC50 in experiment [2] came out at 50.8 µM. The corresponding values for `COC(=O)c1c(Sc2c(O)cc3oc4cc(C)cc(O)c4c(=O)c3c2C(=O)OC)c(O)cc(OC)c1C(=O)c1c(O)cc(C)cc1O` are 4.9 µM (≈ 3.25 µg/mL) and 30.3 µM.

Consider `COC(=O)c1c(Sc2c(O)cc3oc4cc(C)cc(O)c4c(=O)c3c2C(=O)OC)c(O)cc2oc3cc(C)cc(O)c3c(=O)c12`, for which, in experiment [1], the MIC is 3.2 µM (≈ 2.02 µg/mL). Also, in experiment [2], the IC50 was 29.3 µM. In turn, `O=C(N[C@H](CO)[C@H](O)c1ccc([N+](=O)[O-])cc1)C(Cl)Cl` [CHLORAMPHENICOL] registered an MIC in experiment [1] of 5 µM (≈ 1.62 µg/mL).
